What was measured:
Format in all cases: in vivo
cotton, variety D&PL 555 [1] = test: % desiccation of cotton leaves, field trial
Procedure: (§1) The trial was performed on cotton, variety D&PL 555. The formulated test compounds were diluted to the appropriate concentrations with water to which a crop oil concentrate (1% to 2% v/v) or a non-ionic surfactant (0.25% v/v) was added. The application of the test composition as a cotton plant growth regulator was performed using pressurized, over-the-top spray equipment consisting of a research scale boom sprayer. Deposit of the test composition was primarily to the top of the cotton plants, minimizing spray deposition to lower branches, leaves and fruit. The finished spray volume was 10 gallons per acre, with sprayer nozzle design, orientation and nozzle pressures chosen to prevent spray drift. Applications were made at first sign of cotton boll opening and at 15%, 20% and 40% open bolls.
(§2) The experimental design used randomized plots with 1 to 4 treatment rates of test composition and from 1 to 10 replications depending on the test (sees tables below). The size of each experimental plot was about 15 m^2. Testing was performed in Texas, North Carolina, Mississippi and Georgia.
(§3) Percent desiccation, percent defoliation, percent terminal control and percent open bolls were evaluated at 7 and 14 days after application (DAA) of the test composition. Inspection of cotton plants for insect control of armyworm larvae was performed at 2 DAA and insect damage to bolls was performed at the time of harvest
Desiccation refers to leaves or portions of leaves dried to debris following tissue death. […] An evaluation of the condition of leaves in the untreated check plots were observed. Then the test plots were individually evaluated. The percent of all leaves completely or partially desiccated by the test application were recorded, based upon live leaves and leaf debris within the test plot relative to foliage present in the untreated plot.
(§4) The results, shown as the mean of the indicated number of replications, were compared with results observed in the same trials with an untreated control.

cotton, variety D&PL 555 [2] = test: Cotton yield; details: 5 replicates
Procedure: as §1, §2, §4

[3] = test system: Brown Stinkbug (Euschistus servus); test: % bolls damaged by brown stinkbug at harvest; details: 15% open boll application, 0.006 lb ai/a, 1 replicate
Procedure: as §1, with “bolls. […]” for “bolls.”
(§5) Percent desiccation, percent defoliation, percent terminal control and percent open bolls were evaluated at 7 and 14 days after application (DAA) of the test composition. […]
(§6) Bollworm (Heliothis zea) and stinkbug (Euschistus servus) insect control was measured by examining the bolls of 100 cotton plants, 50 cotton plants in two representative locations with in the treatment plot, for injury caused by either bollworms or by stinkbugs. The percent damage was calculated by dividing the number of damaged bolls by the total number of bolls on the plants multiplied by 100. […]

Bollworm (Heliothis zea) = test: % bolls damaged by bollworm at harvest; details: 15% open boll application, 0.006 lb ai/a, 1 replicate
Procedure: as §1, with “bolls. […]” for “bolls.”
as §5, §6

cotton, variety D&PL 555 [4] = test: % terminal control of cotton plants, field trial
Procedure: as §1, §2, §3
Terminal control refers to crop response to the top-most vertical bud and shoots growth. Percent terminal control estimates the proportion of these upper-most growth structures desiccated per 100 cotton plants. Fifty cotton plants in two representative locations within a treatment plot were chosen to determine percent control. Each terminal of the 50 plants in the 2 locations was evaluated, and the total number desiccated per 100 plants was recorded as percent terminal control.
as §4

cotton, variety D&PL 555 [5] = test: % open bolls of cotton plants, field trial; details: 14 DAA
Procedure: as §1, §2, §3
Open bolls refers to the number of bolls which have opened per 100 cotton plants. Fifty cotton plants in two representative locations within a treatment plot were chosen to examine for open bolls. The percent of open bolls was calculated by dividing the number of open bolls by the total number of bolls on the plants multiplied by 100.
as §4

[6] = test system: Fall Armyworms (Spodoptera frugiperda); test: Number of fall armyworms on cotton plants; details: 15% open boll application; 0.004 lb ai/a; 2 DAA; 3 replicates; insects per plant
Procedure: as §1
The experimental design used randomized plots with 1 to 4 treatment rates of test composition and from 1 to 10 replications depending on the test (sees tables below). […]
as §5
The presence of fall armyworms (Spodoptera frugiperda) was determined by examining 20 cotton plants within each of 3 replicates of the treatment plots for fall armyworm. The number of insects per plant was calculated by dividing the total number of insects found by 60. […]

[7] = 20% open boll application, 0.002 lb ai/a, 14 DAA, 2 replicates
[8] = 20% open boll application, 0.004 lb ai/a, 14 DAA, 2 replicates
[9] = 20% open boll application, 0.006 lb ai/a, 14 DAA, 2 replicates
[10] = 20% open boll application, 0.008 lb ai/a, 14 DAA, 2 replicates

**Q.** What does the source list for `CCOC(=O)C(Cl)Cc1cc(-n2nc(C)n(C(F)F)c2=O)c(F)cc1Cl` (stereo not drawn) [carfentrazone-ethyl, ethyl 2-chloro-3-[2-chloro-5-(4-difluoromethyl-3-methyl-5-oxo-4,5-dihydro-[1,2,4]-triazol-1-yl)-4-fluorophenyl]propionate]?
**A.** % Desiccation (cotton, variety D&PL 555 [1]; 15% open boll application, 0.004 lb ai/a, 14 DAA, 10 replicates): 29%; % Desiccation (cotton, variety D&PL 555 [1]; 15% open boll application, 0.006 lb ai/a, 14 DAA, 10 replicates): 33%; % Desiccation (cotton, variety D&PL 555 [1]; 15% open boll application, 0.008 lb ai/a, 14 DAA, 10 replicates): 37%; % Desiccation (cotton, variety D&PL 555 [1]; 15% open boll application, 0.01 lb ai/a, 14 DAA, 10 replicates): 38%; % Desiccation (cotton, variety D&PL 555 [1]; 20% open boll application, 0.002 lb ai/a, 7 DAA, 3 replicates): 8%; % Desiccation (cotton, variety D&PL 555 [1]; [7]): 13%; % Desiccation (cotton, variety D&PL 555 [1]; 20% open boll application, 0.004 lb ai/a, 7 DAA, 3 replicates): 17%; % Desiccation (cotton, variety D&PL 555 [1]; [8]): 23%; % Desiccation (cotton, variety D&PL 555 [1]; 20% open boll application, 0.006 lb ai/a, 7 DAA, 3 replicates): 21%; % Desiccation (cotton, variety D&PL 555 [1]; [9]): 22%; % Desiccation (cotton, variety D&PL 555 [1]; 20% open boll application, 0.008 lb ai/a, 7 DAA, 3 replicates): 24%; % Desiccation (cotton, variety D&PL 555 [1]; [10]): 22%; % Desiccation (cotton, variety D&PL 555 [1]; 40% open boll application, 0.004 lb ai/a, 7 DAA, 1 replicate): 6%; % Desiccation (cotton, variety D&PL 555 [1]; 40% open boll application, 0.006 lb ai/a, 7 DAA, 1 replicate): 5%; % Desiccation (cotton, variety D&PL 555 [1]; 40% open boll application, 0.008 lb ai/a, 7 DAA, 1 replicate): 9%; % Desiccation (cotton, variety D&PL 555 [1]; first open boll application, 0.002 lb ai/a, 7 DAA, 4 replicates): 15%; % Desiccation (cotton, variety D&PL 555 [1]; first open boll application, 0.002 lb ai/a, 14 DAA, 4 replicates): 18%; % Desiccation (cotton, variety D&PL 555 [1]; first open boll application, 0.004 lb ai/a, 7 DAA, 4 replicates): 25%; % Desiccation (cotton, variety D&PL 555 [1]; first open boll application, 0.004 lb ai/a, 14 DAA, 4 replicates): 25%; % Desiccation (cotton, variety D&PL 555 [1]; first open boll application, 0.006 lb ai/a, 7 DAA, 4 replicates): 28%; % Desiccation (cotton, variety D&PL 555 [1]; first open boll application, 0.006 lb ai/a, 14 DAA, 4 replicates): 28%; % Desiccation (cotton, variety D&PL 555 [1]; first open boll application, 0.008 lb ai/a, 7 DAA, 4 replicates): 33%; % Desiccation (cotton, variety D&PL 555 [1]; first open boll application, 0.008 lb ai/a, 14 DAA, 4 replicates): 32%; Cotton yield (cotton, variety D&PL 555 [2]; 20% open bolls application, 0.002 lb ai/a): 1168 Lb lint/Acre; Cotton yield (cotton, variety D&PL 555 [2]; 20% open bolls application, 0.004 lb ai/a): 1128 Lb lint/Acre; Cotton yield (cotton, variety D&PL 555 [2]; 20% open bolls application, 0.006 lb ai/a): 1107 Lb lint/Acre; Cotton yield (cotton, variety D&PL 555 [2]; 20% open bolls application, 0.008 lb ai/a): 1178 Lb lint/Acre; Cotton yield (cotton, variety D&PL 555 [2]; first open boll application, 0.002 lb ai/a): 1172 Lb lint/Acre; Cotton yield (cotton, variety D&PL 555 [2]; first open boll application, 0.004 lb ai/a): 1004 Lb lint/Acre; Cotton yield (cotton, variety D&PL 555 [2]; first open boll application, 0.006 lb ai/a): 1152 Lb lint/Acre; Cotton yield (cotton, variety D&PL 555 [2]; first open boll application, 0.008 lb ai/a): 1167 Lb lint/Acre; % Bolls Damaged by Brown Stinkbug (Euschistus servus) [3]: 2.25%; % Bolls Damaged by Bollworm (Heliothis zea) (Bollworm (Heliothis zea)): 1.75%; % Terminal Control (cotton, variety D&PL 555 [4]; 15% open boll application, 0.004 lb ai/a, 14 DAA, 9 replicates): 63%; % Terminal Control (cotton, variety D&PL 555 [4]; 15% open boll application, 0.006 lb ai/a, 14 DAA, 9 replicates): 74%; % Terminal Control (cotton, variety D&PL 555 [4]; 15% open boll application, 0.008 lb ai/a, 14 DAA, 9 replicates): 79%; % Terminal Control (cotton, variety D&PL 555 [4]; 15% open boll application, 0.01 lb ai/a, 14 DAA, 9 replicates): 82%; % Terminal Control (cotton, variety D&PL 555 [4]; 20% open boll application, 0.002 lb ai/a, 7 DAA, 2 replicates): 50%; % Terminal Control (cotton, variety D&PL 555 [4]; [7]): 49%; % Terminal Control (cotton, variety D&PL 555 [4]; 20% open boll application, 0.004 lb ai/a, 7 DAA, 2 replicates): 67%; % Terminal Control (cotton, variety D&PL 555 [4]; [8]): 64%; % Terminal Control (cotton, variety D&PL 555 [4]; 20% open boll application, 0.006 lb ai/a, 7 DAA, 2 replicates): 66%; % Terminal Control (cotton, variety D&PL 555 [4]; [9]): 64%; % Terminal Control (cotton, variety D&PL 555 [4]; 20% open boll application, 0.008 lb ai/a, 7 DAA, 2 replicates): 60%; % Terminal Control (cotton, variety D&PL 555 [4]; [10]): 63%; % Terminal Control (cotton, variety D&PL 555 [4]; first open boll application, 0.002 lb ai/a, 7 DAA, 3 replicates): 27%; % Terminal Control (cotton, variety D&PL 555 [4]; first open boll application, 0.002 lb ai/a, 14 DAA, 3 replicates): 44%; % Terminal Control (cotton, variety D&PL 555 [4]; first open boll application, 0.004 lb ai/a, 7 DAA, 3 replicates): 46%; % Terminal Control (cotton, variety D&PL 555 [4]; first open boll application, 0.004 lb ai/a, 14 DAA, 3 replicates): 58%; % Terminal Control (cotton, variety D&PL 555 [4]; first open boll application, 0.006 lb ai/a, 7 DAA, 3 replicates): 47%; % Terminal Control (cotton, variety D&PL 555 [4]; first open boll application, 0.006 lb ai/a, 14 DAA, 3 replicates): 59%; % Terminal Control (cotton, variety D&PL 555 [4]; first open boll application, 0.008 lb ai/a, 7 DAA, 3 replicates): 50%; % Terminal Control (cotton, variety D&PL 555 [4]; first open boll application, 0.008 lb ai/a, 14 DAA, 3 replicates): 58%; % Open Bolls (cotton, variety D&PL 555 [5]; 15% open boll application, 0.004 lb ai/a, 10 replicates): 59%; % Open Bolls (cotton, variety D&PL 555 [5]; 15% open boll application, 0.006 lb ai/a, 10 replicates): 61%; % Open Bolls (cotton, variety D&PL 555 [5]; 15% open boll application, 0.008 lb ai/a, 10 replicates): 64%; % Open Bolls (cotton, variety D&PL 555 [5]; 15% open boll application, 0.01 lb ai/a, 10 replicates): 63%; % Open Bolls (cotton, variety D&PL 555 [5]; 20% open boll application, 0.002 lb ai/a, 3 replicates): 62%; % Open Bolls (cotton, variety D&PL 555 [5]; 20% open boll application, 0.004 lb ai/a, 3 replicates): 62%; % Open Bolls (cotton, variety D&PL 555 [5]; 20% open boll application, 0.006 lb ai/a, 3 replicates): 67%; % Open Bolls (cotton, variety D&PL 555 [5]; 20% open boll application, 0.008 lb ai/a, 3 replicates): 62%; % Open Bolls (cotton, variety D&PL 555 [5]; first open boll application, 0.002 lb ai/a, 3 replicates): 61%; % Open Bolls (cotton, variety D&PL 555 [5]; first open boll application, 0.004 lb ai/a, 3 replicates): 58%; % Open Bolls (cotton, variety D&PL 555 [5]; first open boll application, 0.006 lb ai/a, 3 replicates): 63%; % Open Bolls (cotton, variety D&PL 555 [5]; first open boll application, 0.008 lb ai/a, 3 replicates): 68%; Number of insects (Fall Armyworms, Spodoptera frugiperda) [6]: 0

— patent US20090062122A1, “Cotton Growth Regulator” (FMC Corporation, priority 2006, published 2009)
